Laboratory results: ChEMBL document CHEMBL1144814, “5-Sulfonyl-benzimidazoles as selective CB2 agonists” (Bioorg Med Chem Lett, 2008)

Key:
[1] = target: Cannabinoid receptor 2 (Homo sapiens, UniProt P34972); assay: Agonist activity at human CB2 receptor; type: functional
[2] = Ratio of EC50 for CB2 receptor to EC50 for CB1 receptor (unknow origin)
[3] = Metabolism in human liver microsomes after 15 mins
[4] = Oral bioavailability in Sprague-Dawley rat at 10 mg/kg; type: ADME, organism-based; settings: in vivo
[5] = Ratio of drug level in brain to plasma in Sprague-Dawley rat at 10 mg/kg, po; type: ADME, organism-based; set-up: dose 10 mg/kg, route oral; settings: read-out: BPR
[6] = Cmax in Sprague-Dawley rat at 10 mg/kg, po; type: ADME, organism-based; set-up: dose 10 mg/kg, route oral; settings: in vivo
[7] = Tmax in Sprague-Dawley rat at 10 mg/kg, po; type: ADME, organism-based; set-up: dose 10 mg/kg, route oral; settings: in vivo
[8] = Half life in Sprague-Dawley rat at 10 mg/kg, po; type: ADME, organism-based; set-up: dose 10 mg/kg, route oral; settings: in vivo
[9] = AUC (0 to infinity) in Sprague-Dawley rat at 10 mg/kg, po; type: ADME, organism-based; set-up: time infinity, dose 10 mg/kg, route oral; settings: plasma
[10] = test system: Rattus norvegicus; assay: Induction of CB1-mediated side effects in Sprague-Dawley rat at 40 mg/kg, po by tetrad test; type: organism-based; set-up: dose 40 mg/kg, route oral; settings: in vivo
[11] = target: CYP2C19 (Homo sapiens, UniProt P33261); assay: Inhibition of CYP2C19 at 10 uM; type: ADME
[12] = target: CYP2C9 (Homo sapiens, UniProt P11712); assay: Inhibition of CYP2C9 at 10 uM; type: ADME
[13] = Fraction of dose absorbed in Sprague-Dawley rat at 10 mg/kg, po; type: ADME, organism-based; set-up: dose 10 mg/kg, route oral; settings: in vivo, read-out: Fabs
[14] = target: T1, Cannabinoid receptor 2 (Rattus norvegicus) (UniProt Q9QZN9); assay: Agonist activity at rat CB2 receptor; type: functional
T1 sequence (whole entry): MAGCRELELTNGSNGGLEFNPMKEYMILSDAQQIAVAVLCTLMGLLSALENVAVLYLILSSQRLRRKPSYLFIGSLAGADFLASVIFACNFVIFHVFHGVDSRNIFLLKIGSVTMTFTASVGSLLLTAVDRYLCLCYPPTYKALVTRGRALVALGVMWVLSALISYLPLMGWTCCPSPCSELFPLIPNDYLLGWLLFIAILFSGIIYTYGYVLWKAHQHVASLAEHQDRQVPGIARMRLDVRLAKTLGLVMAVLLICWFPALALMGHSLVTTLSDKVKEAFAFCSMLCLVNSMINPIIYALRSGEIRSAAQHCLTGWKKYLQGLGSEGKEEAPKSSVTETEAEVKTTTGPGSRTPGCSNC

[15] = target: T2, Cytochrome P450 1A2 (Homo sapiens, UniProt P05177); assay: Inhibition of CYP1A2; type: ADME
T2 sequence (P05177 whole entry): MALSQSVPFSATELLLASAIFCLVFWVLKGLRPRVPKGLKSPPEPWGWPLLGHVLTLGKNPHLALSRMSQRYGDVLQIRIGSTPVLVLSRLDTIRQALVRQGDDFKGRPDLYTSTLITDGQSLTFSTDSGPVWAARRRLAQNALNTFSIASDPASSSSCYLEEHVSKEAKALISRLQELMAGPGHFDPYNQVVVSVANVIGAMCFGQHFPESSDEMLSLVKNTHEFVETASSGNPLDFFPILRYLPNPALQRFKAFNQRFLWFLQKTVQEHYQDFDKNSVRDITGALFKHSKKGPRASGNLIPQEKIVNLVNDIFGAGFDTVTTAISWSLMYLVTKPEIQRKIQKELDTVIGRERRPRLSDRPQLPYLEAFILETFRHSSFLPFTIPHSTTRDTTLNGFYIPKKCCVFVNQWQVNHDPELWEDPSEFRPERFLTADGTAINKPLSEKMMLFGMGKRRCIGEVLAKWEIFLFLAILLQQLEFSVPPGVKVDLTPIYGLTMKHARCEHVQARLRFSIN

[16] = target: Cytochrome P450 2C19 (Homo sapiens, UniProt P33261); assay: Inhibition of CYP2C19; type: ADME
[17] = target: Cytochrome P450 2C9 (Homo sapiens, UniProt P11712); assay: Inhibition of CYP2C9; type: ADME
[18] = target: Cytochrome P450 2D6 (Homo sapiens, UniProt P10635); assay: Inhibition of CYP2D6; type: ADME
[19] = target: Cytochrome P450 3A4 (Homo sapiens, UniProt P08684); assay: Inhibition of CYP3A4; type: ADME
[20] = Solubility at pH 7.4; type: physicochemical; settings: buffer
[21] = Solubility at pH 4; type: physicochemical; settings: buffer

Cannabinoid receptor 2, sequence (P34972 whole entry): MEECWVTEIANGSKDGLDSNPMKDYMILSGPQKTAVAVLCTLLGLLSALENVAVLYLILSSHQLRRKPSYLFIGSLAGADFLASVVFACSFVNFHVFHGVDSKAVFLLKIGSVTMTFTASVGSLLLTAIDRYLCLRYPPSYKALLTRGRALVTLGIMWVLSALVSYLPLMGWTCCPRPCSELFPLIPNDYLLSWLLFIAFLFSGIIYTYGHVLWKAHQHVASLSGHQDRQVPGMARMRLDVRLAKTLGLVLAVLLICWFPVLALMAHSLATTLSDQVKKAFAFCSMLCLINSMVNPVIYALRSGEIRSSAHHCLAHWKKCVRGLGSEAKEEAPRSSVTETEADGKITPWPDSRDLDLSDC
Cytochrome P450 2D6, sequence (P10635 whole entry): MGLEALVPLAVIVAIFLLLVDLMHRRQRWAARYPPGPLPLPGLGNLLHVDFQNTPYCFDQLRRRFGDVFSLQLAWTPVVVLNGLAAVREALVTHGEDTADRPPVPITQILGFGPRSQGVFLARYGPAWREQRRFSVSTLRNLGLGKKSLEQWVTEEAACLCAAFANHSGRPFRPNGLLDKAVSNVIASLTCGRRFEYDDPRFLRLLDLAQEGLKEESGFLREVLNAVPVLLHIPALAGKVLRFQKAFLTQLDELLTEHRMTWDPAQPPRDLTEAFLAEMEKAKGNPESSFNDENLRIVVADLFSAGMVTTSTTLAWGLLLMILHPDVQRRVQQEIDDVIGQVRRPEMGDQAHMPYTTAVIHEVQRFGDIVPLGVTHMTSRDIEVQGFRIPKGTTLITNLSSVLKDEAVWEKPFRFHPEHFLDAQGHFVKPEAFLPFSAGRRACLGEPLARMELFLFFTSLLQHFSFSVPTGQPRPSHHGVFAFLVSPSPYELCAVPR
CYP2C19, sequence (P33261 whole entry): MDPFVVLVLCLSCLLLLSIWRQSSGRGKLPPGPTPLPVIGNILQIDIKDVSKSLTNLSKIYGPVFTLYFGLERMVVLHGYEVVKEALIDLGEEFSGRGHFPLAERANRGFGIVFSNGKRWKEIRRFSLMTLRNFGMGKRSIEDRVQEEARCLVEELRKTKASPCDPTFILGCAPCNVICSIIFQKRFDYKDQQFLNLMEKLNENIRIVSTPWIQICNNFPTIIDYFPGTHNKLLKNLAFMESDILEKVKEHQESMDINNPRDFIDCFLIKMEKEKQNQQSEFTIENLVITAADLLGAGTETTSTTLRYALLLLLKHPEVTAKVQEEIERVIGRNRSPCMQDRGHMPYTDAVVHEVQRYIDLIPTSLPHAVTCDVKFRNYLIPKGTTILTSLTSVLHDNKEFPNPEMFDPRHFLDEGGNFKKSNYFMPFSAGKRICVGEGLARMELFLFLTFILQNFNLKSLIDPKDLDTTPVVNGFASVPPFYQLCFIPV
Cytochrome P450 2C19, sequence (P33261 whole entry): as above
Cytochrome P450 2C9, sequence (P11712 whole entry): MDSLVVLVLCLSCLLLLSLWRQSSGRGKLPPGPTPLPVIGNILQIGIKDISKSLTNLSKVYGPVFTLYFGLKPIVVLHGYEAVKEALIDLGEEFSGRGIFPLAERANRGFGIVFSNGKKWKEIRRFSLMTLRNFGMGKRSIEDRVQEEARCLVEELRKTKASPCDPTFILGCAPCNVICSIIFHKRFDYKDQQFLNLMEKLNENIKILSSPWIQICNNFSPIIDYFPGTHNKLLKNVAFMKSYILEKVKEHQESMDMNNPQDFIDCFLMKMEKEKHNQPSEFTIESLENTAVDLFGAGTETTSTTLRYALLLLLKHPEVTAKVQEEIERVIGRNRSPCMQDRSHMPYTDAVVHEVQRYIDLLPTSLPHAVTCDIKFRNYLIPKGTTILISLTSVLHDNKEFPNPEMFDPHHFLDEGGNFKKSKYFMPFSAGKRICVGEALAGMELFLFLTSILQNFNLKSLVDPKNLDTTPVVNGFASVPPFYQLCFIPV
CYP2C9, sequence (P11712 whole entry): as above
Cytochrome P450 3A4, sequence (P08684 whole entry): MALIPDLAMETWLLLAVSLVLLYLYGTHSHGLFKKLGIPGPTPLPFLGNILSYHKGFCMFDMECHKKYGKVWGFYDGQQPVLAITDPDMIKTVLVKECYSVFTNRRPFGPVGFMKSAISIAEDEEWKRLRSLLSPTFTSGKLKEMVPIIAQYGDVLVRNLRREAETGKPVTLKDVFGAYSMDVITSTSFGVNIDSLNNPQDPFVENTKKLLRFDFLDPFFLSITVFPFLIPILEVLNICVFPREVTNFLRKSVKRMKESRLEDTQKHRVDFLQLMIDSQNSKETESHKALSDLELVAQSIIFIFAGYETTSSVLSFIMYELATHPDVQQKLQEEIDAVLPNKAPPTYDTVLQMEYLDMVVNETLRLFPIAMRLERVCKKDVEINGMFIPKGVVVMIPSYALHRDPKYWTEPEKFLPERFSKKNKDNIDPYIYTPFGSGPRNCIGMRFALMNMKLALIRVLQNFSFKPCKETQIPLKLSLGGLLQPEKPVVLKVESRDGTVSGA

SMILES	EC50 [1] [nM]	Ratio EC50 [2]	metabolized at 0.25 h [3] [%]	also measured
CC(C)(C)c1nc2cc(S(=O)(=O)c3ccnc(F)c3)ccc2n1CC1CCOCC1	0.8	495	40	–
CC(C)(C)c1nc2cc(S(=O)(=O)CCC(F)(F)F)ccc2n1CC1CCOCC1	1.3	394	13	–
CCOc1ccc(Cc2nc3cc(Cl)c([S+]([O-])CC)cc3[nH]2)cc1 (configuration not stated)	> 10000	–	–	–
CC(C)(C)c1nc2cc(S(=O)(=O)CCCC(F)(F)F)ccc2n1CC1CCOCC1	1	285	36	–
CC(C)(C)c1nc2cc(S(=O)(=O)c3cccc(C#N)c3)ccc2n1CC1CCOCC1	0.5	1460	61	–
CC(C)(C)c1nc2cc(S(=O)(=O)c3ccc(CN)cc3)ccc2n1CC1CCOCC1	5	363	–	–
CCOc1ccc(Cc2nc3cc(SCC)c(Cl)cc3[nH]2)cc1	2000	–	–	–
CCS(=O)(=O)c1ccc2c(c1)nc(C)n2CC1CCCCC1	31	–	–	–
CCOc1cc(S(=O)(=O)c2ccc3c(c2)nc(C(C)(C)C)n3CC2CCOCC2)ccn1	0.3	4270	48	bioavailability [4]: 43%; Kp [5]: 0.1; Cmax [6]: 731 ng/mL; Tmax [7]: 0.5 h; half-life [8]: 3.4 h; AUC(0-inf) [9]: 2500 ng·h/mL; Activity [10]: Non-toxic; inhibition at 10 µM [11]: 76%; inhibition at 10 µM [12]: 94%; Fa [13]: ≤ 1%
CCS(=O)(=O)c1ccc2c(c1)nc(C(C)(C)C)n2CC1CCCCC1	0.8	–	–	Efficacy [1]: 104%
CCOc1ccc(Cc2nc3cc([S+]([O-])CC)c(Cl)cc3n2CC2CCCCC2)cc1 (configuration not stated)	6.3	8.2	–	–
CCNCCCS(=O)(=O)c1ccc2c(c1)nc(C(C)(C)C)n2CC1CCOCC1	158	4.3	–	–
CC(C)(C)c1nc2cc(S(=O)(=O)c3ccco3)ccc2n1CC1CCOCC1	0.4	40	–	–
CC(C)(C)c1nc2cc(S(=O)(=O)c3ccccc3)ccc2n1CC1CCCCC1	1.2	14	23	–
CC(C)(C)c1nc2cc(S(=O)(=O)c3nccs3)ccc2n1CC1CCOCC1	0.8	4	25	–
CCOc1ccc(Cc2nc3cc(S(=O)(=O)CC)ccc3n2CC2CCOCC2)cc1	4	1600	34	Efficacy [1]: 44%
CCOc1ccc(Cc2nc3cc([S+]([O-])CC)c(Cl)cc3n2CC2CCOCC2)cc1 (configuration not stated)	20	484	95	–
CC(C)(C)c1nc2cc(S(=O)(=O)c3ccncc3)ccc2n1CC1CCOCC1	1.2	215	28	–
CCS(=O)(=O)c1ccc2c(c1)nc(C(C)(C)C)n2CC1CCOCC1	1.2	551	0	Efficacy [1]: 120%; Efficacy [14]: 102%

SMILES	EC50 [1] [nM]	Ratio EC50 [2]	metabolized at 0.25 h [3] [%]	also measured
CCOc1ccc(Cc2nc3cc(SCC)c(Cl)cc3n2CC2CCOCC2)cc1	4	75	98	–
CC(=O)N(C)Cc1ccc(S(=O)(=O)c2ccc3c(c2)nc(C(C)(C)C)n3CC2CCOCC2)cc1	1.6	550	50	–
CCOc1ccc(Cc2nc3cc(SCC)c(Cl)cc3n2CC2CCCCC2)cc1	125	1.2	85	–
CC(C)(C)c1nc2cc(S(=O)(=O)c3c(Cl)cccc3Cl)ccc2n1CC1CCOCC1	0.4	292	96	–
CC(C)(C)c1nc2cc(S(=O)(=O)Cc3ccc(C#N)cc3)ccc2n1CC1CCCCC1	0.5	436	73	–
Cc1cc(S(=O)(=O)c2ccc3c(c2)nc(C(C)(C)C)n3CC2CCOCC2)ccn1	1.3	1620	40	–
[O-][S+](Cc1ccc(Cl)cc1)c1cc2nc(C3CCCCC3)[nH]c2cc1Cl (configuration not stated)	< 1	> 1000	< 50	Efficacy [1]: > 100%; Inhibition [15]: < 50%; Inhibition [16]: < 50%; Inhibition [17]: < 50%; Inhibition [18]: < 50%; Inhibition [19]: < 50%; solubility [20]: > 20 µM; solubility [21]: > 20 µM
CCOc1ccc(Cc2nc3cc(S(=O)(=O)CC)c(Cl)cc3n2CC2CCOCC2)cc1	20	537	66	–
CCS(=O)(=O)c1ccc2c(c1)nc(CC(C)C)n2CC1CCOCC1	4	–	–	Efficacy [1]: 101%; Efficacy [14]: 43%
CCOc1ccc(Cc2nc3cc(S(=O)(=O)CC)c(Cl)cc3n2CC2CCCCC2)cc1	5	50	74	–
CC(C)(C)c1nc2cc(S(=O)(=O)C(F)(F)c3ccc(C#N)cc3)ccc2n1CC1CCCCC1	1.6	62	28	–
CC(C)(C)c1nc2cc(S(=O)(=O)CCN)ccc2n1CC1CCOCC1	10	912	–	–
CC(C)(C)c1nc2cc(S(=O)(=O)CCO)ccc2n1CC1CCOCC1	2.5	3850	6	–
CC(C)(C)c1nc2cc(S(=O)(=O)CC3CC3)ccc2n1CC1CCOCC1	1.3	121	14	–
CC(C)(C)c1nc2cc(S(=O)(=O)c3ccc(C#N)cc3)ccc2n1CC1CCOCC1	0.6	191	42	–
CC(C)(C)c1nc2cc(S(=O)(=O)CCC#N)ccc2n1CC1CCOCC1	4	2110	24	–
CCS(=O)(=O)c1ccc2c(c1)nc(C1CC1)n2CC1CCOCC1	4	–	–	Efficacy [1]: 109%; Efficacy [14]: 0%
CCS(=O)(=O)c1ccc2c(c1)nc(C(C)C)n2CC1CCCCC1	1.6	–	–	Efficacy [1]: 101%; Efficacy [14]: 99%
CC(=O)NCCCS(=O)(=O)c1ccc2c(c1)nc(C(C)(C)C)n2CC1CCOCC1	100	109	–	–
